Measurements published in US20220249426A1, “INHIBITORS OF THE STING PATHWAY FOR THE TREATMENT OF HIDRADENITIS SUPPURATIVA” (INSERM (INSTITUT NATIONAL DE LA SANTÉ ET DE LA RECHERCH …, priority 2019, published 2022).

How the values were obtained:
Type in all cases: cell-based, human
HS-ORS cells = experiment: IFN-β and ISG mRNA quantification after siRNA transfection of HS-ORS cells; conditions: compared to scramble siRNA
From the text: (§1) FIG. 1: IFI16-STING pathway induces interferon (IFN) production in outer root sheath (ORS) cells from patients with hidradenitis suppurativa (HS). (A) Relative mRNA levels of IFN-β and IP10 in HS-ORS and HD-ORS cells. **P<0.01; ns, nonsignificant; Mann-Whitney rank-sum test. (B) Nonparametric Spearman correlation analysis of the expression of IFN-β genes and percentage of cells in phase S in HS-ORS cell populations. (C) Levels of IFN-β mRNA in HS-ORS (n=10) and HD-ORS (n=4) cell populations transfected with siSTING for 2 days before IFN-β mRNA quantification. (D) IFN-β mRNA levels in HS-ORS cell populations (n=3) transfected with siRNA-cGAS or siRNA-IFI16 for 2 days before IFN-β mRNA quantification. (E) DNA fiber spreading analysis of fork progression in HS-ORS cell populations (n=2) transfected with siSTING for 2 days before DNA fiber spreading. ****P<0.0001, Mann-Whitney rank-sum test. […] Quantification of phospho-IRF3 signal intensity in HS-ORS (n=7) and HD (n=5). […]
(§2) ORS cells were lysed with RLT Plus Buffer (Qiagen). The RNA was extracted using the RNeasy Plus Mini Kit (Qiagen) according to the manufacturer's protocol then converted into cDNA using the QuantiTect Reverse Transcription Kit (Qiagen) for IFNβ detection and the High-Capacity cDNA Reverse Transcription Kit (Applied Biosystems, Thermo Fisher Scientific) for the expression of other genes. […]

HD-ORS cells = experiment: IFN-β and ISG mRNA quantification after siRNA transfection of HD-ORS cells; conditions: compared to scramble siRNA
From the text: as §1, §2

HS-ORS [1] = experiment: Western blot analysis (phospho-IRF3, cGAS protein) after siRNA transfection of HS-ORS; conditions: compared to scramble siRNA
From the text: (§3) FIG. 1: IFI16-STING pathway induces interferon (IFN) production in outer root sheath (ORS) cells from patients with hidradenitis suppurativa (HS). (A) Relative mRNA levels of IFN-β and IP10 in HS-ORS and HD-ORS cells. **P<0.01; ns, nonsignificant; Mann-Whitney rank-sum test. (B) Nonparametric Spearman correlation analysis of the expression of IFN-β genes and percentage of cells in phase S in HS-ORS cell populations. (C) Levels of IFN-β mRNA in HS-ORS (n=10) and HD-ORS (n=4) cell populations transfected with siSTING for 2 days before IFN-β mRNA quantification. (D) IFN-β mRNA levels in HS-ORS cell populations (n=3) transfected with siRNA-cGAS or siRNA-IFI16 for 2 days before IFN-β mRNA quantification. (E) DNA fiber spreading analysis of fork progression in HS-ORS cell populations (n=2) transfected with siSTING for 2 days before DNA fiber spreading. ****P<0.0001, Mann-Whitney rank-sum test. (F) Western blot analysis of the levels of phospho-IRF3 in ORS transfected with siSTING or siCtrl. Quantification of phospho-IRF3 signal intensity in HS-ORS (n=7) and HD (n=5).
(§4) The following siRNAs were used: siSTING (CUGCAUCCAUCCAUCCCGUdTdT; SEQ ID NO:1, Sigma #Hs01_00031038, Sigma, St Louis, […].), siIFI16 (L-020004-00-0005, ON-TARGETplus Human IFI16 siRNA SMARTpool, Horizon Discovery, Waterbeach, UK), and sicGAS (L-015607-02-0005, ON-TARGETplus Human MB21D1 siRNA SMARTpool, Horizon Discovery). […]

HD-ORS = experiment: Western blot analysis of phospho-IRF3 after siRNA transfection of HD-ORS; conditions: compared to scramble siRNA
From the text: as §3, §4

HS-ORS cell populations = experiment: DNA fiber spreading analysis of fork progression after siSTING transfection; conditions: both HS-ORS cell populations (n=2); siSTING for 2 days before DNA fiber spreading
From the text: as §1
DNA fiber spreading was performed as described by Jackson and Pombo (16). […] The DNA fiber images thus acquired were analyzed using MetaMorph Microscopy Automation and Image Analysis Software (Molecular Devices, San Jose, Calif.) and the results were evaluated statistically by applying the two-sided Mann-Whitney rank-sum test with GraphPad Prism software (GraphPad, La Jolla, Calif.).

HS-ORS [2] = experiment: mRNA quantification of ISGs in HS-ORS treated with drugs targeting the IFN pathway; conditions: compared to ORS treated with DMSO
Method: FIG. 2: Outer root sheath (ORS) cells from two patients were treated with two drugs (A. Ruxolitinib B. H151) targeting the interferon (IFN) pathway. mRNA levels of MX1, IP10, IFI27 and OAS1 in ORS. HS-ORS (n=2) were treated with two drugs during 24 hours before performing mRNA quantification.
ORS cells were lysed with RLT Plus Buffer (Qiagen). The RNA was extracted using the RNeasy Plus Mini Kit (Qiagen) according to the manufacturer's protocol then converted into cDNA using the QuantiTect Reverse Transcription Kit (Qiagen) for IFNβ detection and the High-Capacity cDNA Reverse Transcription Kit (Applied Biosystems, Thermo Fisher Scientific) for the expression of other genes.
For real-time PCR analysis of the cDNA samples thus obtained, we prepared custom-made primer sets using the Brilliant II SYBR green QPCR master mix (Agilent Technologies) or Quantitect SYBR Green PCR Kit (Qiagen) according to the manufacturers' protocols. Real-time PCR was performed on a MX3000P device (Agilent). The GAPDH or OAZ1 mRNA level was used for normalization. The relative expression (ΔCt) of mRNAs of each gene was computed using GAPDH or OAZ-1 expression as the reference.
We used two drugs targeting IFN pathway. HS-ORS (n=2) were treated with drugs during 24 hours before performing mRNA quantification. Four ISGs: MX1, OAS1, IFI27 and IP10 were analyzed.

[3] = first patient, ORS treated 24 hours

Row | Compound | IFN-β transcript levels (HS-ORS cells; HS-ORS cells, siRNA 10 μM, 2 days) | ISGs transcripts (OAS1 and IP-10) (HS-ORS cells; ORS from HS patients) | IFN-β transcript levels (HD-ORS cells; HD-ORS cells, siRNA 10 μM, 2 days) | ISGs transcripts (OAS1 and IP-10) (HD-ORS cells; ORS from HD) | IRF3 phosphorylation at Ser396 (pIRF3) (HS-ORS [1]) | IRF3 phosphorylation at Ser396 (pIRF3) (HD-ORS) | IdU track length (HS-ORS cell populations) | levels of IFI27 transcripts (HS-ORS [2]; HS-ORS (n=2), 24 hours) | levels of IP10 transcripts (HS-ORS [2]; HS-ORS (n=2), 24 hours) | levels of MX1 transcripts (HS-ORS [2]; HS-ORS (n=2), 24 hours) | levels of OAS1 transcripts (HS-ORS [2]; HS-ORS (n=2), 24 hours) | levels of IFI27 transcripts (HS-ORS [2]; [3]) | levels of IP10 transcripts (HS-ORS [2]; [3]) | levels of MX1 transcripts (HS-ORS [2]; [3]) | levels of OAS1 transcripts (HS-ORS [2]; [3])
1 | siSTING: siRNA CUGCAUCCAUCCAUCCCGUdTdT; SEQ ID NO:1, Sigma #Hs01_00031038 (sense CUGCAUCCAUCCAUCCCGUTT; dTdT overhang, further chemistry not given here) | lower | decrease | not associated with a difference | no change | inhibition | no modification | decreased to the length observed in HD-ORS cells |  |  |  |  |  |  |  | 
2 | CCc1ccc(NC(=O)Nc2c[nH]c3ccccc23)cc1 [H151, N-(4-Ethylphenyl)-N′-1H-indol-3-yl-urea] |  |  |  |  |  |  |  | reduced levels | reduced levels | reduced levels | reduced levels | reduced levels | reduced levels | reduced levels | reduced levels
